Source: patent EP4745135A1 (Gluetacs Therapeutics (Shanghai) Co., Ltd., priority 2023, dated 2025)

How the values were obtained:
GSPT1 = test: Western blot, degradation of substrate protein in hPBMCs; type: cell-based, Human
[1] = system: Human breast cancer cell (MCF-7); test: Tumor cell proliferation inhibition (CellTiter-Meiluncell luminescent cell viability assay); conditions: MCF7, 96 h; for inhibition at 0.01 µM: read-out: Inhibition Rate at 10 nM (%); for inhibition at 0.5 µM: read-out: Inhibition Rate at 500 nM (%)
IKZF1 = molecular target: T1, IKZF1 (Homo sapiens, UniProt Q13422+Q96SW2); test: Western blot, degradation of substrate protein in hPBMCs; type: cell-based
T1 construct: effects of the compounds of the present disclosure on the expression of target proteins in cells; endogenous in cells; host or cells: human PBMCs (Milecell Biotechnologies)

IKZF2 = molecular target: T2, IKZF2 (Homo sapiens, UniProt Q96SW2+Q9UKS7); test: as above; type: cell-based
T2 construct: effects of the compounds of the present disclosure on the expression of target proteins in cells; endogenous in cells; host or cells: human PBMCs (Milecell Biotechnologies)

WEE1 = molecular target: T3, WEE1 (Homo sapiens, UniProt P30291+Q96SW2); test: as above; type: cell-based
T3 construct: effects of the compounds of the present disclosure on the expression of target proteins in cells; endogenous in cells; host or cells: human PBMCs (Milecell Biotechnologies)

IKZF3 = molecular target: T4, IKZF3 (Homo sapiens, UniProt Q96SW2+Q9UKT9); test: as above; type: cell-based
T4 construct: effects of the compounds of the present disclosure on the expression of target proteins in cells; endogenous in cells; host or cells: human PBMCs (Milecell Biotechnologies)

CK1α = molecular target: T5, CK1α (Homo sapiens, UniProt P48729+Q96SW2); test: as above; type: cell-based
T5 construct: effects of the compounds of the present disclosure on the expression of target proteins in cells; endogenous in cells; host or cells: human PBMCs (Milecell Biotechnologies)

[2] = system: Human multiple myeloma cell (MM.1S); test: Tumor cell proliferation inhibition (CellTiter-Meiluncell luminescent cell viability assay); conditions: Homo sapiens, MM1.S, 96 h; for inhibition at 0.01 µM: read-out: Inhibition Rate at 10 nM (%); for inhibition at 0.5 µM: read-out: Inhibition Rate at 500 nM (%)
[3] = molecular target: T6, human Cereblon WT GST-tagged protein (Homo sapiens, UniProt Q96SW2); test: CRBN-binding affinity, HTRF (CEREBLON BINDING kit); conditions: for inhibition at 0.5 µM: read-out: Inhibition Rate at 0.5 µM (%); for inhibition at 2 µM: read-out: Inhibition Rate at 2 µM (%)
T6 construct: purchased CISBIO 64BDCRBNPEH

[4] = Western blot, 24 hours of compound treatment, compounds tested at 50 nM and 500 nM (concentration for the table not stated)
[5] = 24 hours treatment, compounds at 50 nM and 500 nM (concentration behind the class not stated)

T4 sequence (Q9UKT9 whole entry): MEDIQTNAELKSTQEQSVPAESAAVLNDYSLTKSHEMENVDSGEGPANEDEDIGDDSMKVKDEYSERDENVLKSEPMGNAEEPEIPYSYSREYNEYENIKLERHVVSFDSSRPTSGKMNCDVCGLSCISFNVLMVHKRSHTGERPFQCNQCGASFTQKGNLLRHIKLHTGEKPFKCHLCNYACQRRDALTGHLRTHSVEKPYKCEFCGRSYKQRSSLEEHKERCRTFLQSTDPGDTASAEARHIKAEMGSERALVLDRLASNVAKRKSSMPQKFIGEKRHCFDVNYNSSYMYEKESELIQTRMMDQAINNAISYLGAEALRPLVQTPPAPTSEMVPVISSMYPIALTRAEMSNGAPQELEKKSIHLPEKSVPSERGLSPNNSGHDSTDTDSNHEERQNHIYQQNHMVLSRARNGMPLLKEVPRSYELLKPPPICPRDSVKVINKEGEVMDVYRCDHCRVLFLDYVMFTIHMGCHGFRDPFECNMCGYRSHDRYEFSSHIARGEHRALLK
T4 sequence (Q96SW2 whole entry): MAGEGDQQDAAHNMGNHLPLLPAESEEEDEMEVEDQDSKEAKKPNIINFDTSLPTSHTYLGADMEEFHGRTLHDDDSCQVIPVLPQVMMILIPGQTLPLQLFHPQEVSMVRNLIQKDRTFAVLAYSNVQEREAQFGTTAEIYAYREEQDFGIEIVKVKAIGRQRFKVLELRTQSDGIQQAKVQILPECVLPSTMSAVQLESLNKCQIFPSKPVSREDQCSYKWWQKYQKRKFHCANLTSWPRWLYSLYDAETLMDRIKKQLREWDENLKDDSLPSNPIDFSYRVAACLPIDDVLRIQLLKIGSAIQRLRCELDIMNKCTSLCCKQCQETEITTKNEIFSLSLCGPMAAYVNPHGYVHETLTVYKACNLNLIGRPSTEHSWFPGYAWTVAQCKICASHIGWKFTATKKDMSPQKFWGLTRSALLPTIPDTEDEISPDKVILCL
T4 sequence (Q16531 whole entry partner): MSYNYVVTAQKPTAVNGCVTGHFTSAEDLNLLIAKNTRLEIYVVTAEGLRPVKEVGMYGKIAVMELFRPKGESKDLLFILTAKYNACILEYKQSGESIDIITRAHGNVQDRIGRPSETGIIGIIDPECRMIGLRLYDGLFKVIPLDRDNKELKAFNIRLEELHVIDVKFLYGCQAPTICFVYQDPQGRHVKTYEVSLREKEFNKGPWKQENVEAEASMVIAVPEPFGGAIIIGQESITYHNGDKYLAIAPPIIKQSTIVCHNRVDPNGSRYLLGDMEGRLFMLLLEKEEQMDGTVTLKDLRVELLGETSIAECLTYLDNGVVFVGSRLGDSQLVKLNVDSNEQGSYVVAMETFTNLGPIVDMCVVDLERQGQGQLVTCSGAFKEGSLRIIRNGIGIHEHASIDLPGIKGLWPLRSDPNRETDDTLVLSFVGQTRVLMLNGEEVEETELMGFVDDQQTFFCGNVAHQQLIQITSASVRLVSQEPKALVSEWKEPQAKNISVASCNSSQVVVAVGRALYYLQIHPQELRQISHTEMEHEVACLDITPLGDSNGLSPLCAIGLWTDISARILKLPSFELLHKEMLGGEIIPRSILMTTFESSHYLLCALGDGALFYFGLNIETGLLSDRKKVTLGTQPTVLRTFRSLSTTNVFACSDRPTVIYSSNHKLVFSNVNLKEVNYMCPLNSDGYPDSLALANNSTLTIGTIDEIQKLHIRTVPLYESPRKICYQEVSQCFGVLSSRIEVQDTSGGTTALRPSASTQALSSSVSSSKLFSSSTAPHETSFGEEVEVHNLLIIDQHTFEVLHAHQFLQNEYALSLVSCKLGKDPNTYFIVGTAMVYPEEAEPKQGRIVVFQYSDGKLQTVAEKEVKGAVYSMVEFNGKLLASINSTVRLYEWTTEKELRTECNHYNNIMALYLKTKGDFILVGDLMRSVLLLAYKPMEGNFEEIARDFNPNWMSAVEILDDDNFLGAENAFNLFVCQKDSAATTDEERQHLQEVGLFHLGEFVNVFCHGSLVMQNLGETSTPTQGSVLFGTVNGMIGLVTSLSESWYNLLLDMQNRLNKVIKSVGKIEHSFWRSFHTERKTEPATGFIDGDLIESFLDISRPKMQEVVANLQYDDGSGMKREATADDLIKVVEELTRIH
T5 sequence (P48729 whole entry): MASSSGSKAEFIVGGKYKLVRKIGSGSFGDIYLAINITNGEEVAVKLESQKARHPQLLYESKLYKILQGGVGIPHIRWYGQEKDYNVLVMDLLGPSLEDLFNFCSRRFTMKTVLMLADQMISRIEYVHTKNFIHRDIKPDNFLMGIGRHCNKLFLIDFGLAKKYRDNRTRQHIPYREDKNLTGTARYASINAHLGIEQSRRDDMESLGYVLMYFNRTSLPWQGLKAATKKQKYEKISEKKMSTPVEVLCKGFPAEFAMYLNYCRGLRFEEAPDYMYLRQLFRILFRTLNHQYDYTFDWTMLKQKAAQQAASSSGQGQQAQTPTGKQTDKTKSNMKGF
T5 sequence (Q96SW2 whole entry): as the sequence (Q96SW2 whole entry) above
T5 sequence (Q16531 whole entry partner): as the sequence (Q16531 whole entry partner) above
T1 sequence (Q13422 whole entry): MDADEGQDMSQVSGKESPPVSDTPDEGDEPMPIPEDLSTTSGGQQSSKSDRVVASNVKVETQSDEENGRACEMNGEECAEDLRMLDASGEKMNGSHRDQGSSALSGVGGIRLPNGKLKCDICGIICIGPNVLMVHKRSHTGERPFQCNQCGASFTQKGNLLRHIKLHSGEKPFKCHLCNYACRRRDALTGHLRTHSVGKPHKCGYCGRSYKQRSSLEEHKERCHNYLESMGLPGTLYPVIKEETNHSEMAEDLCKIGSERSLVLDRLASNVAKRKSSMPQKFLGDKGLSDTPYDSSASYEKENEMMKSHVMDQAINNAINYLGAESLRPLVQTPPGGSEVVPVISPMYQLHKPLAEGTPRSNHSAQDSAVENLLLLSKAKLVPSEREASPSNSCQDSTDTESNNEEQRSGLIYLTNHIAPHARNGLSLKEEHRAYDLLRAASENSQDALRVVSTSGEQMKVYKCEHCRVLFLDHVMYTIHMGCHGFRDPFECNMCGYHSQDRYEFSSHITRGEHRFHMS
T1 sequence (Q96SW2 whole entry): as the sequence (Q96SW2 whole entry) above
T1 sequence (Q16531 whole entry partner): as the sequence (Q16531 whole entry partner) above
T2 sequence (Q9UKS7 whole entry): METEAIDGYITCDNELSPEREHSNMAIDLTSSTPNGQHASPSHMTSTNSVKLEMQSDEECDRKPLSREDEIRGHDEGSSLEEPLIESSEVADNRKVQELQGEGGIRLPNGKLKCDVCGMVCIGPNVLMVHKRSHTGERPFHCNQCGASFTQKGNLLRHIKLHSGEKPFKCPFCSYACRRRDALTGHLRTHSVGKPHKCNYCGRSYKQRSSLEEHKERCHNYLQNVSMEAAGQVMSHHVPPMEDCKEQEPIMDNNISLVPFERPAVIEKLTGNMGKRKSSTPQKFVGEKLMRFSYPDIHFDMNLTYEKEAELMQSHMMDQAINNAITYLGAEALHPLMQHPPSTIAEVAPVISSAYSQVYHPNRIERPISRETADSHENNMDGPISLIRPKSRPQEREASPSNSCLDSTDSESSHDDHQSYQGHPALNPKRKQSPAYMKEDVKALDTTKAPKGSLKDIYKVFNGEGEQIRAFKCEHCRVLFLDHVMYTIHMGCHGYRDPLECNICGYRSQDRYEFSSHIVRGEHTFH
T2 sequence (Q96SW2 whole entry): as the sequence (Q96SW2 whole entry) above
T2 sequence (Q16531 whole entry partner): as the sequence (Q16531 whole entry partner) above
T6 sequence (Q96SW2 whole entry): as the sequence (Q96SW2 whole entry) above
T3 sequence (P30291 whole entry): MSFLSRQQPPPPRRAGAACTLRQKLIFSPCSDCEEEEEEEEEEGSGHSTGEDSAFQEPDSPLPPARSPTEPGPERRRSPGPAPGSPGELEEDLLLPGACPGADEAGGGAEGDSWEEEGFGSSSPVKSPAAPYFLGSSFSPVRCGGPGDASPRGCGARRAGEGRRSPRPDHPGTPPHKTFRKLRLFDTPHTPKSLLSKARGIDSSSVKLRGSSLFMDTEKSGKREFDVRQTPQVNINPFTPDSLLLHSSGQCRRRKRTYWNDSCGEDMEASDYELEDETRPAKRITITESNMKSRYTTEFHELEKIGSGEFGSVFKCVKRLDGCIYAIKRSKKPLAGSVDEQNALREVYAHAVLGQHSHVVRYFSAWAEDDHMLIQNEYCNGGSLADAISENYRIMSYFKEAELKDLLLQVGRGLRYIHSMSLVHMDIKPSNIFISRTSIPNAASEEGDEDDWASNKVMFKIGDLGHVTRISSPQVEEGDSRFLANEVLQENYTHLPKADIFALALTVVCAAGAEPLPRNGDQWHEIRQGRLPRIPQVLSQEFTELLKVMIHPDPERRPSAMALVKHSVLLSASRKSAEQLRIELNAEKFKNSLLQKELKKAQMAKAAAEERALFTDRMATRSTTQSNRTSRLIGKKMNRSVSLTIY
T3 sequence (Q96SW2 whole entry): as the sequence (Q96SW2 whole entry) above
T3 sequence (Q16531 whole entry partner): as the sequence (Q16531 whole entry partner) above

Row | Structure (SMILES) | inhibition at 0.5 µM [3] | inhibition at 2 µM [3] | GSPT1 substrate protein remaining % (GSPT1; [4]) | inhibition at 0.01 µM [1] | inhibition at 0.5 µM [1] | IKZF 1 substrate protein remaining % (IKZF1; [4]) | IKZF2 substrate protein remaining % (IKZF2; [4]) | Wee1 substrate protein remaining % (WEE1; [4]) | IKZF3 substrate protein remaining % (IKZF3; [4]) | CK1α substrate protein remaining % (CK1α; [4]) | inhibition at 0.01 µM [2] | inhibition at 0.5 µM [2] | GSPT1 substrate protein remaining % (GSPT1; [5]) | IKZF 1 substrate protein remaining % (IKZF1; [5]) | IKZF2 substrate protein remaining % (IKZF2; [5]) | Wee1 substrate protein remaining % (WEE1; [5]) | IKZF3 substrate protein remaining % (IKZF3; [5]) | CK1α substrate protein remaining % (CK1α; [5])
1 | O=C1CCC(N2Cc3c(CN4CCC(N5CCc6cc(F)ccc65)CC4)cccc3C2=S)C(=O)N1 (centres unmarked) [GT-08845, 3-(4-((4-(5-fluoroindolin-1-yl)piperidin-1-yl)methyl)-1-thioxoisoindolin-2-yl)piperidine-2,6-dione] | 40 to 53% | 80 to 100% | A (0% ≤ substrate protein remaining % ≤ 80%) | 50 to 60% | 60 to 70% | B (80%< substrate protein remaining %≤ 100%) | B (80%< substrate protein remaining %≤ 100%) | A (0% ≤ substrate protein remaining % ≤ 80%) | B (80%< substrate protein remaining %≤ 100%) | B (80%< substrate protein remaining %≤ 100%) | 20 to 30% | 40 to 50% |  |  |  |  |  | 
2 | O=C1CCC(N2Cc3c(CN4CCC(N5C(=O)COc6cc(F)ccc65)CC4)cccc3C2=S)C(=O)N1 (centres unmarked) [GT-08853, 3-(4-((4-(7-fluoro-3-oxo-2,3-dihydro-4H-benzo[b][1,4]oxazin-4-yl)piperidin-1-yl)methyl)-1-thioxoisoindolin-2-yl)piperidine-2,6-dione] | 60 to 80% | 80 to 100% |  | 5 to 10% | 40 to 50% |  |  |  |  |  | 30 to 40% | 40 to 50% | B (80%< substrate protein remaining %≤ 100%) | B (80%< substrate protein remaining %≤ 100%) | B (80%< substrate protein remaining %≤ 100%) | B (80%< substrate protein remaining %≤ 100%) | A (0% ≤ substrate protein remaining % ≤ 80%) | B (80%< substrate protein remaining %≤ 100%)
3 | O=C1CCC(N2Cc3c(CN4CCN(c5ncnc6sc7c(c56)CCC7)CC4)cccc3C2=S)C(=O)N1 (centres unmarked) [GT-08925, 3-(4-((4-(6,7-dihydro-5H-cyclopenta[4,5]thieno[2,3-d]pyrimidin-4-yl)piperazin-1-yl)methyl)-1-thioxoisoindolin-2-yl)piperidine-2,6-dione] | 60 to 80% | 80 to 100% |  | 60 to 70% | 60 to 70% |  |  |  |  |  |  |  | B (80%< substrate protein remaining %≤ 100%) | B (80%< substrate protein remaining %≤ 100%) | A (0% ≤ substrate protein remaining % ≤ 80%) | A (0% ≤ substrate protein remaining % ≤ 80%) | A (0% ≤ substrate protein remaining % ≤ 80%) | B (80%< substrate protein remaining %≤ 100%)
4 | O=C1CCC(N2Cc3c(CN4CC=C(c5ncnc6sccc56)CC4)cccc3C2=S)C(=O)N1 (centres unmarked) [GT-08937, 3-(4-((4-(thieno[2,3-d]pyrimidin-4-yl)-3,6-dihydropyridin-1(2H)-yl)methyl)-1-thioxoisoindolin-2-yl)piperidine-2,6-dione] | 60 to 80% | 80 to 100% |  | 30 to 40% | 40 to 50% |  |  |  |  |  |  |  | A (0% ≤ substrate protein remaining % ≤ 80%) | B (80%< substrate protein remaining %≤ 100%) | B (80%< substrate protein remaining %≤ 100%) | A (0% ≤ substrate protein remaining % ≤ 80%) | B (80%< substrate protein remaining %≤ 100%) | B (80%< substrate protein remaining %≤ 100%)
5 | O=C1CCC(N2Cc3cc(CN4CCN(c5nc(N6CCOCC6)nc6c5SCC6)CC4)ccc3C2=S)C(=O)N1 (centres unmarked) [GT-09329, 3-(5-((4-(2-morpholino-6,7-dihydrothieno[3,2-d]pyrimidin-4-yl)piperazin-1-yl)methyl)-1-thioxoisoindolin-2-yl)piperidine-2,6-dione] | 60 to 80% | 80 to 100% |  | 20 to 30% | 40 to 50% |  |  |  |  |  |  |  | A (0% ≤ substrate protein remaining % ≤ 80%) | B (80%< substrate protein remaining %≤ 100%) | A (0% ≤ substrate protein remaining % ≤ 80%) | B (80%< substrate protein remaining %≤ 100%) | B (80%< substrate protein remaining %≤ 100%) | B (80%< substrate protein remaining %≤ 100%)

Further lines, with some results ahead:

Row | inhibition at 0.5 µM [3] | inhibition at 2 µM [3] | Structure (SMILES) | GSPT1 substrate protein remaining % (GSPT1; [4]) | inhibition at 0.01 µM [1] | inhibition at 0.5 µM [1] | IKZF 1 substrate protein remaining % (IKZF1; [4]) | IKZF2 substrate protein remaining % (IKZF2; [4]) | Wee1 substrate protein remaining % (WEE1; [4]) | IKZF3 substrate protein remaining % (IKZF3; [4]) | CK1α substrate protein remaining % (CK1α; [4]) | inhibition at 0.01 µM [2] | inhibition at 0.5 µM [2] | GSPT1 substrate protein remaining % (GSPT1; [5]) | IKZF 1 substrate protein remaining % (IKZF1; [5]) | IKZF2 substrate protein remaining % (IKZF2; [5]) | Wee1 substrate protein remaining % (WEE1; [5]) | IKZF3 substrate protein remaining % (IKZF3; [5]) | CK1α substrate protein remaining % (CK1α; [5])
6 | 53 to 60% | 80 to 100% | O=C1CCC(N2Cc3c(CN4CC(C5CCOc6cc(F)ccc65)C4)cccc3C2=S)C(=O)N1 (centres unmarked) [GT-08859, 3-(4-((3-(7-fluorochroman-4-yl)azetidin-1-yl)methyl)-1-thioxoisoindolin-2-yl)piperidine-2,6-dione] |  | 50 to 60% | 40 to 50% |  |  |  |  |  | 30 to 40% | 50 to 60% | A (0% ≤ substrate protein remaining % ≤ 80%) | B (80%< substrate protein remaining %≤ 100%) | B (80%< substrate protein remaining %≤ 100%) | B (80%< substrate protein remaining %≤ 100%) | B (80%< substrate protein remaining %≤ 100%) | B (80%< substrate protein remaining %≤ 100%)
7 | 40 to 53% | 80 to 100% | O=C1CCC(N2Cc3c(CN4CCN(c5ncnc6scc(-c7ccccc7)c56)CC4)cccc3C2=S)C(=O)N1 (centres unmarked) [GT-08920, 3-(4-((4-(5-phenylthieno[2,3-d]pyrimidin-4-yl)piperazin-1-yl)methyl)-1-thioxoisoindolin-2-yl)piperidine-2,6-dione] |  | 50 to 60% | 30 to 40% |  |  |  |  |  | 30 to 40% | 40 to 50% |  |  |  |  |  | 
8 | 60 to 80% | 80 to 100% | O=C1CCC(N2Cc3c(CN4CCC(c5ncnc6sccc56)CC4)cccc3C2=S)C(=O)N1 (centres unmarked) [GT-08928, 3-(4-((4-(thieno[2,3-d]pyrimidin-4-yl)piperidin-1-yl)methyl)-1-thioxoisoindolin-2-yl)piperidine-2,6-dione] |  | 40 to 50% | 60 to 70% |  |  |  |  |  |  |  | B (80%< substrate protein remaining %≤ 100%) | B (80%< substrate protein remaining %≤ 100%) | B (80%< substrate protein remaining %≤ 100%) | A (0% ≤ substrate protein remaining % ≤ 80%) | B (80%< substrate protein remaining %≤ 100%) | B (80%< substrate protein remaining %≤ 100%)
9 | 40 to 53% | 53 to 60% | O=C1CCC(N2Cc3c(CN4CCC(c5ncnc6sc7c(c56)CCC7)CC4)cccc3C2=S)C(=O)N1 (centres unmarked) [GT-08934, 3-(4-((4-(6,7-dihydro-5H-cyclopenta[4,5]thieno[2,3-d]pyrimidin-4-yl)piperidin-1-yl)methyl)-1-thioxoisoindolin-2-yl)piperidine-2,6-dione] |  | 30 to 40% | 40 to 50% |  |  |  |  |  |  |  | A (0% ≤ substrate protein remaining % ≤ 80%) | A (0% ≤ substrate protein remaining % ≤ 80%) | B (80%< substrate protein remaining %≤ 100%) | A (0% ≤ substrate protein remaining % ≤ 80%) | A (0% ≤ substrate protein remaining % ≤ 80%) | B (80%< substrate protein remaining %≤ 100%)
